Literature values in patent publication US7744929B2, “Botanical drug compositions for treatments of liver and immunological disorders” (priority 2003, dated 2010).

Tested on: HCV

SMILES: NC(=O)c1ncn([C@@H]2O[C@H](CO)[C@@H](O)[C@H]2O)n1 [ribavirin]
- increase of the sustained response rate (ribavirin added to interferon): two- to three fold
- effect on HCV (ribavirin by itself): little effect
